According to patent publication US12492188B2, “1H-benzo[D]imidazole derivatives as TLR9 inhibitors for the treatment of fibrosis” (BRISTOL-MYERS SQUIBB COMPANY, priority 2020, dated 2025):
Read-outs that look alike come from different tables or passages of the source.

Legend:
Type in all cases: cell-based
human TLR9 = target: T1, human TLR9 (Homo sapiens, UniProt Q9NR96); assay: TLR9 inhibition reporter assay (HEK-Blue cells, secreted embryonic alkaline phosphatase reporter)
T1 construct: host or cells: HEK-Blue cells (HEK293-derived reporter line)
T1 sequence (Q9NR96 26-1032): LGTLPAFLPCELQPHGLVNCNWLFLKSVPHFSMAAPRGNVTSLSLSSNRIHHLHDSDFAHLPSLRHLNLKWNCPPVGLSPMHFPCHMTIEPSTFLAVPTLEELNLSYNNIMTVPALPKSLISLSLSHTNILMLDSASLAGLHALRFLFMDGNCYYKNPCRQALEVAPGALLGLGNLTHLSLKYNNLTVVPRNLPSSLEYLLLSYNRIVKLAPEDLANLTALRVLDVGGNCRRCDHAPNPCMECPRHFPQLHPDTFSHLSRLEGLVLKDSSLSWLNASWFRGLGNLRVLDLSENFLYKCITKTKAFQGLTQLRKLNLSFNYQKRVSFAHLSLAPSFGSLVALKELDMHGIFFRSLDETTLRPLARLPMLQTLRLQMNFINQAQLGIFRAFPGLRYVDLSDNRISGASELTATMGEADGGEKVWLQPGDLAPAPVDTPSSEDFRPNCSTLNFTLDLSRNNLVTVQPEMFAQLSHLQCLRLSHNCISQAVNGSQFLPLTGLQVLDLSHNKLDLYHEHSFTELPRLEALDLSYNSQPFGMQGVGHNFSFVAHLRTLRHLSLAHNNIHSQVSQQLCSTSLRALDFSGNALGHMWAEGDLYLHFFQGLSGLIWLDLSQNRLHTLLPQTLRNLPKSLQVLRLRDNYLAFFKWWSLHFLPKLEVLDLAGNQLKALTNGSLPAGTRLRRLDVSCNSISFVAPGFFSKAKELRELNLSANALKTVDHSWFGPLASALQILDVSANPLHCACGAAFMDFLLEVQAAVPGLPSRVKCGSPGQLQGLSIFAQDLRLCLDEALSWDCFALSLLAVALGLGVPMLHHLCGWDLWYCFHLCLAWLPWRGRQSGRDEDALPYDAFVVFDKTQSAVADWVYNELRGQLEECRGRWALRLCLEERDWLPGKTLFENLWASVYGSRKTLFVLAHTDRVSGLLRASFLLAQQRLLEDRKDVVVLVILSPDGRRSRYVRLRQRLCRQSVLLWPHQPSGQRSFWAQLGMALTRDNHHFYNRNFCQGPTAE
Outline: (§1)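 Inhibitors are tested in dose response (0.05 nM–50 μM) on HEK-Blue reporter cells expressing human TLR7, TLR8 or TLR9. After 30 min at room temperature, each line is stimulated with its own agonist (gardiquimod 7.5 μM, R848 15.9 μM or ODN2006 5 nM, final) and SEAP is measured 22 h later.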

human TLR8 = target: T2, human TLR8 (Homo sapiens, UniProt Q9NR97); assay: TLR8 inhibition reporter assay (HEK-Blue cells, secreted embryonic alkaline phosphatase reporter); conditions: HEK-Blue cells overexpressing human TLR8, stimulated with R848 15.9 μM; read-out: TLR 8 IC50
T2 construct: host or cells: HEK-Blue cells (HEK293-derived reporter line)
T2 sequence (Q9NR97 27-1041): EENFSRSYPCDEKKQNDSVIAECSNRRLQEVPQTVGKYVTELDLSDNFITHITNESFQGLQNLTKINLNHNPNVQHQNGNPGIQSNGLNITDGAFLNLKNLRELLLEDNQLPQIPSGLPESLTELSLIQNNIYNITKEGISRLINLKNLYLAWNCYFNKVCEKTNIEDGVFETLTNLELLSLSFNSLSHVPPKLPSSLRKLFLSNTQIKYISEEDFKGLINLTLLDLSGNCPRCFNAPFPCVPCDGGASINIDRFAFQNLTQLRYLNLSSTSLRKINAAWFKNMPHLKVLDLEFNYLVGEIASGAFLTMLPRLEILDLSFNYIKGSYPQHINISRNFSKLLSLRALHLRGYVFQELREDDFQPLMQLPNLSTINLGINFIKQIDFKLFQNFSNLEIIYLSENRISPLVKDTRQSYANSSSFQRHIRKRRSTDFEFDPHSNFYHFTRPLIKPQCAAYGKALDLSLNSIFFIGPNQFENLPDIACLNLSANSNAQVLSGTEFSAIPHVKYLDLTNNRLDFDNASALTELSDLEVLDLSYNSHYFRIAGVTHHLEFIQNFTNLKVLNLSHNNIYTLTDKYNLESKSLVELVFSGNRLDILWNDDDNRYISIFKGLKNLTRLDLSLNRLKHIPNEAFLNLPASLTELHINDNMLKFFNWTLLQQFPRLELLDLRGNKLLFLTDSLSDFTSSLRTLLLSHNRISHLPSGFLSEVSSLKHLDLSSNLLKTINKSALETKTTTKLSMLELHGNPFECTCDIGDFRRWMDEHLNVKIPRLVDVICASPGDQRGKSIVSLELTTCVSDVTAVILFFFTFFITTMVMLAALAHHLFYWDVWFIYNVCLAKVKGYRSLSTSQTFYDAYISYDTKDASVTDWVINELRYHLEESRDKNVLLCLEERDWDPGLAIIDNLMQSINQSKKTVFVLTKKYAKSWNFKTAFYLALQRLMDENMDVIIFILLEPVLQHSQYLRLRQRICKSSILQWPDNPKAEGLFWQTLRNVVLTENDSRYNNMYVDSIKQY
Outline: as §1

human TLR7 = target: T3, human TLR7 (Homo sapiens, UniProt Q9NYK1); assay: TLR7 inhibition reporter assay (HEK-Blue cells, secreted embryonic alkaline phosphatase reporter); conditions: HEK-Blue cells overexpressing human TLR7, stimulated with gardiquimod 7.5 μM; read-out: TLR 7 IC50
T3 construct: host or cells: HEK-Blue cells (HEK293-derived reporter line)
T3 sequence (Q9NYK1 27-1049): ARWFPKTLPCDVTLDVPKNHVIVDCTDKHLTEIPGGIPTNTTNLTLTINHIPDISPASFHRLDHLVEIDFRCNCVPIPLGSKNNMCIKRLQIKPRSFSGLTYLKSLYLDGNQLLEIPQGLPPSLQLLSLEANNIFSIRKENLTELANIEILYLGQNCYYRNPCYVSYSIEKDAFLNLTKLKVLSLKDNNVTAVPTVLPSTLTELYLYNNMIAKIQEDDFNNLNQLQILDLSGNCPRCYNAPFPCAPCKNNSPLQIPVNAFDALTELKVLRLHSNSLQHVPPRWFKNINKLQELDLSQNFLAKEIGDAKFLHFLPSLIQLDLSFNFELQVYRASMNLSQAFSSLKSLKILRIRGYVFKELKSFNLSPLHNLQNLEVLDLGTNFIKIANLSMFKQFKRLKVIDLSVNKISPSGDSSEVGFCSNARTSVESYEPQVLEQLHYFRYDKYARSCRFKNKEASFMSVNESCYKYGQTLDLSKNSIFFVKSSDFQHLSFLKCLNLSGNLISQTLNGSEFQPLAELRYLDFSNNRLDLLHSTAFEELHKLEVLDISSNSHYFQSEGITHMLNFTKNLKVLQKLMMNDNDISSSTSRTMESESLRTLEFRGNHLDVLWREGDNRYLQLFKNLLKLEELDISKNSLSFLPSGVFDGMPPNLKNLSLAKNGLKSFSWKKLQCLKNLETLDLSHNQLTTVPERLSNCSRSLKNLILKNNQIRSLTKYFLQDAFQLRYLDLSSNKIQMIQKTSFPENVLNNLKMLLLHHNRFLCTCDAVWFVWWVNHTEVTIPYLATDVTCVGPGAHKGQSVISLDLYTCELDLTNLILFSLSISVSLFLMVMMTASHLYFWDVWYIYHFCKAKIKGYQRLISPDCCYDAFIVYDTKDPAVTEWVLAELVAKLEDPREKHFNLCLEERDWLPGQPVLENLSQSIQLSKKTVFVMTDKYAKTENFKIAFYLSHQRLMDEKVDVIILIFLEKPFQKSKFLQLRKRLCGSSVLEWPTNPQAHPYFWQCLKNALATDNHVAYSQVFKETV
Outline: as §1

[1] = HEK-Blue cells overexpressing human TLR9, stimulated with ODN2006 5 nM, 22 hour incubation, reporter readout
[2] = HEK-Blue cells overexpressing human TLR9, stimulated with ODN2006 5 nM, read-out: TLR 9 IC50
[3] = HEK-Blue human TLR9 reporter cells

IC50 (human TLR9; [1]) [nM] | IC50 (human TLR9; [2]) [nM] | IC50 (human TLR8) [nM] | IC50 (human TLR7) [nM] | IC50 (human TLR9) [nM] | IC50 (human TLR9; [3]) [nM] | Structure (SMILES)
360 | 358 | > 50000 | 38300 | – | – | CC(C)N1CCC(N2CCC(c3cc4nc(-c5ccc(S(C)(=O)=O)cc5)n(C)c4cc3F)CC2)CC1 [Example 99, 6-fluoro-5-(1′-isopropyl-[1,4′-bipiperidin]-4-yl)-1-methyl-2-(4-(methylsulfonyl)phenyl)-1H-benzo[d]imidazole]
360 | 357 | 4600 | 6600 | – | – | COc1ccc(-c2nc3cc(C4CCN(C5CCN(CC(C)C)CC5)CC4)ccc3n2C(C)C)cc1OC [Example 36, 2-(3,4-dimethoxyphenyl)-5-(1′-isobutyl-[1,4′-bipiperidin]-4-yl)-1-isopropyl-1H-benzo[d]imidazole]
– | 354 | > 50000 | 7800 | 350 | – | CC(C)CN1CCC(N2CCC(c3cc4c(cc3F)nc(-c3ccc(S(C)(=O)=O)cc3)n4C)CC2)CC1 [Example 221, 5-fluoro-6-(1′-isobutyl-[1,4′-bipiperidin]-4-yl)-1-methyl-2-(4-(methylsulfonyl)phenyl)-1H-benzo[d]imidazole]
– | 192 | > 50000 | 6100 | – | 190 | Cn1c(-c2ccc(S(C)(=O)=O)cc2)nc2ccc(C3CCN(C4CCCN(C5COC5)CC4)CC3)c(F)c21 (centres unmarked) [Example 314, 7-fluoro-1-methyl-2-(4-(methylsulfonyl)phenyl)-6-(1-(1-(oxetan-3-yl)azepan-4-yl)piperidin-4-yl)-1H-benzo[d]imidazole]
– | 407 | > 50000 | 27400 | 410 | – | COCCN1CCC(N2CCC(c3cc4c(cc3F)nc(-c3ccc(S(C)(=O)=O)cc3)n4C)CC2)CC1 [Example 227, 5-fluoro-6-(1′-(2-methoxyethyl)-[1,4′-bipiperidin]-4-yl)-1-methyl-2-(4-(methylsulfonyl)phenyl)-1H-benzo[d]imidazole]
– | 16 | > 50000 | 4700 | – | 16 | Cn1c(-c2ccc(S(C)(=O)=O)cc2)nc2c(F)cc(C3CCN(C4CC5CCC(C4)N5CC4CC4)CC3)cc21 (single isomer, unassigned) [Example 283, 6-(1-(8-(cyclopropylmethyl)-8-azabicyclo[3.2.1]octan-3-yl)piperidin-4-yl)-4-fluoro-1-methyl-2-(4-(methylsulfonyl)phenyl)-1H-benzo[d]imidazole]
470 | 466 | 6400 | 10200 | – | – | Cc1cc(-c2cc(F)c(CN3CCC(N(C)C)CC3)c(F)c2)cc2c1nc(-c1ccc(S(C)(=O)=O)cc1)n2C [Example 392, 1-(4-(1,4-dimethyl-2-(4-(methylsulfonyl)phenyl)-1H-benzo[d]imidazol-6-yl)-2,6-difluorobenzyl)-N,N-dimethylpiperidin-4-amine]
390 | 388 | > 50000 | 7500 | – | – | COc1ccc(-c2nc3cc(C4CCN(C5CCN(C6CC6)CC5)CC4)ccc3n2C(C)C)cc1OC [Example 37, 5-(1′-cyclopropyl-[1,4′-bipiperidin]-4-yl)-2-(3,4-dimethoxyphenyl)-1-isopropyl-1H-benzo[d]imidazole]
– | 154 | > 50000 | > 50000 | 150 | – | CC(C)CN1C2CCC1CC(N1CCC(c3ccc4c(nc(-c5ccc(S(C)(=O)=O)cc5)n4C)c3F)CC1)C2 (single isomer, unassigned) [Example 189, 4-fluoro-5-(1-(8-isobutyl-8-azabicyclo[3.2.1]octan-3-yl)piperidin-4-yl)-1-methyl-2-(4-(methylsulfonyl)phenyl)-1H-benzo[d]imidazole]
280 | 279 | > 50000 | 800 | – | – | CN(C)C1CCN(Cc2ccc(-c3ccc4nc(-c5ccccc5)n(C)c4c3)cc2)CC1 [Example 374, N,N-dimethyl-1-(4-(1-methyl-2-phenyl-1H-benzo[d]imidazol-6-yl)benzyl)piperidin-4-amine]
– | 335 | > 50000 | > 50000 | 340 | – | Cn1c(-c2ccc(S(C)(=O)=O)cc2)nc2cc(C3CCN(C4CC5CCC(C4)N5C4COC4)CC3)cc(F)c21 (single isomer, unassigned) [Example 213, 7-fluoro-1-methyl-2-(4-(methylsulfonyl)phenyl)-5-(1-(8-(oxetan-3-yl)-8-azabicyclo[3.2.1]octan-3-yl)piperidin-4-yl)-1H-benzo[d]imidazole]
